Paper PMC4422330 (Bioorganic & medicinal chemistry letters, 2008)

Legend:
pfDHOD = molecular target: T1, pfDHOD (Plasmodium falciparum, UniProt Q08210); experiment: biochemical
T1 sequence (Q08210 24-569): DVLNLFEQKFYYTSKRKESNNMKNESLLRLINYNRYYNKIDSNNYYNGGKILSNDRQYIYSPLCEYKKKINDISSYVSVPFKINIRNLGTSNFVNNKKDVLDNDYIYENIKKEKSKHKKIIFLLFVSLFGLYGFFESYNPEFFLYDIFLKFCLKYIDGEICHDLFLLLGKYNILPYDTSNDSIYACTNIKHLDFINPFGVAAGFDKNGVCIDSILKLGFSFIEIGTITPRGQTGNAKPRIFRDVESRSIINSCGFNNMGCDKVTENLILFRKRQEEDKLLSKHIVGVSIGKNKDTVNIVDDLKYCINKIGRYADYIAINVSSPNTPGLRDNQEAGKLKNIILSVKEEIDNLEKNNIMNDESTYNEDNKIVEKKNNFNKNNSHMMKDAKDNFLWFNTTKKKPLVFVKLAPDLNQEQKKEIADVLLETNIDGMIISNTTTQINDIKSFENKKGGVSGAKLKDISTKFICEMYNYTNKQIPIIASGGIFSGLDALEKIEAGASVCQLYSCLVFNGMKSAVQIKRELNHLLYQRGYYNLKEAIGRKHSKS

pfNDH2 [1] = molecular target: T2, pfNDH2 (Plasmodium falciparum, UniProt Q8I302); experiment: biochemical; type: biochemical; conditions: for inhibition of pfNDH2 activity (in words): purified recombinant pfNDH2, concentrations of up to 10 µM
pfNDH2 [2] = molecular target: T2, pfNDH2; experiment: Kinetic properties of purified pfNDH2 with electron-accepting substrates; type: biochemical; conditions: in vitro, absence of membrane components
P. falciparum DD2-scDHOD = type: cell-based, Plasmodium falciparum; conditions: drug concentration of up to 10 µM
[3] = tested on: O=C1C=CC(=Nc2cc(Cl)c(O)c(Cl)c2)C=C1; experiment: Kinetic properties of purified pfNDH2 with electron-accepting substrates; type: biochemical, Plasmodium falciparum; conditions: pH 8.0; 100.0 °C

`C[C@@H]1CC[C@H]2[C@@H](C)C(=O)O[C@@H]3O[C@@]4(C)CC[C@@H]1[C@]32OO4` [Artemisinin] was tested, and the IC50 (pfDHOD) was greater than 10 µM, the IC50 (pfNDH2 [1]) was greater than 10 µM and the “inhibition of pfNDH2 activity (in words)” value (pfNDH2 [1]) was “did not perturb catalysis”.

`O=C1C(O)=C([C@H]2CC[C@H](c3ccc(Cl)cc3)CC2)C(=O)c2ccccc21` [Atovaquone] was tested, and the IC50 (pfDHOD) was greater than 10 µM and the IC50 (pfNDH2 [1]) was greater than 10 µM.

For `COC1=C(OC)C(=O)C(C)=CC1=O` [CoQ0], the “utilization as electron acceptor substrate by pfNDH2 (in words)” value (“utilization” below) (pfNDH2 [2]) was “detectable catalysis”.

For `COC1=C(OC)C(=O)C(CC=C(C)C)=C(C)C1=O` [CoQ1], the “utilization” value (pfNDH2 [2]) was “detectable catalysis”.

In the case of `COC1=C(OC)C(=O)C(C/C=C(\C)CC/C=C(\C)CC/C=C(\C)CCC=C(C)C)=C(C)C1=O` [CoQ4], the “utilization” value (pfNDH2 [2]) is reported as “not efficiently utilized”.

`CCCCCCCCCCC1=C(C)C(=O)C(OC)=C(OC)C1=O` [CoQD] was tested, and the “utilization” value (pfNDH2 [2]) was “not efficiently utilized”.

Compound `O=c1cc(-c2ccccc2)oc2ccccc12` [Flavone] has an IC50 (pfDHOD) greater than 10 µM and an IC50 (pfNDH2 [1]) greater than 10 µM.

For `CCCCCCCCCCCCc1cc(=O)c2ccccc2n1O` [HDQ, 1-hydroxy-2-dodecyl-4(1H)quinolone], the “proliferation of the scDHOD-expressing transgenic strain (in words)” value (P. falciparum DD2-scDHOD) was “unaffected”, the IC50 (pfNDH2 [1]) was greater than 10 µM and the “inhibition of pfNDH2 activity (in words)” value (pfNDH2 [1]) was “do not inhibit”.

In the case of `[Cl-].c1ccc([I+]c2ccccc2)cc1` [IDP, diphenyliodonium chloride], the IC50 (pfDHOD) is reported as greater than 10 µM, the IC50 (pfNDH2 [1]) is reported as greater than 10 µM and the “inhibition of pfNDH2 activity (in words)” value (pfNDH2 [1]) is reported as “do not inhibit”.

`C=C(C)[C@H]1Cc2c(ccc3c2O[C@@H]2COc4cc(OC)c(OC)cc4[C@@H]2C3=O)O1` [Rotenone] gave an IC50 (pfDHOD) greater than 10 µM and an IC50 (pfNDH2 [1]) greater than 10 µM.

In the case of pfNDH2 (Plasmodium falciparum 3D7), the Km [3] is reported as 4.6 µM and the kcat [3] is reported as 0.0317 s⁻¹.
